Converted amounts (≈) assume the structure as drawn. Square brackets hold non-standard residues; d marks the D form. Peptide text beside a SMILES is read from it.

The test system of series [1] is human erythrocytes. Description: Hemolytic activity (MHC), Protocol A, 12 hours. The conditions noted are these: for minimal hemolytic concentration (MHC): incubation for 12 hours at 37° C. (Tables 7 and 8); for MHC: minimal hemolytic concentration on human red blood cells (hRBC), Table 9. In short, it runs like this: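 Twofold peptide dilutions incubated with 1% human erythrocytes in phosphate-buffered saline at 37 °C for 12 h; hemoglobin release read spectrophotometrically at 562 nm, or at 570 nm in a repeat. Hemolytic titer taken as the highest 2-fold dilution still releasing hemoglobin, versus peptide-free erythrocytes.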

The subject of series [2] is gram-negative bacteria. Nature of the series: MIC, microtiter dilution, Gram-negative bacteria (geometric mean of 6 strains). The conditions noted are these: for MIC (μg/ml) Gram-negative: geometric mean MIC, Table 9. In kind it is cell-based. In short, it runs like this:
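Microtiter broth dilution in LB no-salt or Mueller-Hinton broth (brain heart infusion for P. aeruginosa clinical isolates, inoculum 1×10^6 CFU/ml); overnight 37° C. cultures diluted, plates incubated 37° C. 24 h. MIC is lowest peptide concentration inhibiting growth; value is geometric mean over 6 strains.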

Series [3] is described as follows: Circular dichroism spectroscopy of helical structure (benign buffer and 50% TFE). In kind it is physicochemical. In outline: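 Peptide CD spectra at 25 °C, 190–250 nm, in benign buffer (50 mM KH2PO4/K2HPO4, 100 mM KCl, pH 7) and in the same buffer with 50% TFE. Samples were a 10-fold dilution of ~500 μM stock. Mean residue molar ellipticity at 222 nm gave relative α-helicity.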
(Circular dichroism is widely used to follow secondary structure.)

The test system of series [4] is gram-positive bacteria. In short, it runs like this:
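Microtiter dilution in LB no-salt or Mueller-Hinton medium, with BHI for Pseudomonas aeruginosa clinical isolates (final inoculum 1×10^6 CFU/ml). Plates were incubated 24 hours at 37° C. MIC was the lowest peptide concentration inhibiting growth.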

[5] abbreviates: 25° C., relative to NAL in 50% TFE.
Setting [6] is: 25° C., benign buffer (100 mM KCl, 50 mM PO4 pH 7.0).
The mark [7] stands for this setting: 25° C., benign buffer diluted 1:1 (v/v) with TFE.
[8] abbreviates: 25° C., benign buffer, relative to NAL in 50% TFE.

Take `CC[C@H](C)[C@H](NC(=O)[C@H](C)NC(=O)[C@H](CCCCN)NC(=O)[C@H](CC(C)C)NC(=O)[C@H](C)NC(=O)[C@@H](NC(=O)[C@H](Cc1c[nH]cn1)NC(=O)[C@H](CC(C)C)NC(=O)[C@@H](NC(=O)[C@@H](NC(=O)[C@H](CCCCN)NC(=O)[C@@H](NC(=O)[C@H](C)NC(=O)[C@H](NC(=O)[C@H](CCCCN)NC(=O)[C@H](Cc1ccccc1)NC(=O)[C@@H](NC(=O)[C@H](CCCCN)NC(=O)[C@H](CC(C)C)NC(=O)[C@H](Cc1ccccc1)NC(=O)[C@H](CO)NC(=O)[C@H](CCCCN)NC(=O)[C@H](Cc1c[nH]c2ccccc12)NC(=O)[C@H](CCCCN)NC(C)=O)[C@@H](C)O)C(C)C)C(C)C)[C@@H](C)O)C(C)C)[C@@H](C)O)C(=O)N[C@@H](CO)C(=O)N[C@@H](CO)C(N)=O` [PVD] (Ac-KWKSFLKTFK[dV]AVKTVLHTALKAISS-NH2): in series [1], the “fold decrease in hemolytic activity compared to the L-diastereomer” value came to 16, the “minimal hemolytic concentration (MHC)” value came out at 125 µg/mL and the “MHC” value is 125.0 µg/mL. Besides, the “MIC (μg/ml) Gram-negative” value in series [2] was found to be 6.1 µg/mL (≈ 2.05 µM). The “% helix 50% TFE” value in series [3] (setting [5]) was 72%. Further, the “[θ]222 Benign” value in series [3] (setting [6]) is −2,400 deg · cm^2 · dmol^−1. The “[θ]222 50% TFE” value in series [3] (setting [7]) is on record as −20,800 deg · cm^2 · dmol^−1. Also, the “% helix Benign” value in series [3] (setting [8]) came to 8%. For the same compound, the “MIC (μg/ml) Gram-positive” value in series [4] amounted to 6.6 µg/mL (≈ 2.22 µM).

Turning to `CC[C@H](C)[C@H](NC(=O)[C@H](C)NC(=O)[C@H](CCCCN)NC(=O)[C@H](CC(C)C)NC(=O)[C@H](C)NC(=O)[C@@H](NC(=O)[C@H](Cc1c[nH]cn1)NC(=O)[C@H](CC(C)C)NC(=O)[C@@H](NC(=O)[C@@H](NC(=O)[C@H](CCCCN)NC(=O)[C@@H](NC(=O)[C@H](C)NC(=O)[C@H](CO)NC(=O)[C@H](CCCCN)NC(=O)[C@H](Cc1ccccc1)NC(=O)[C@@H](NC(=O)[C@H](CCCCN)NC(=O)[C@H](CC(C)C)NC(=O)[C@H](Cc1ccccc1)NC(=O)[C@H](CO)NC(=O)[C@H](CCCCN)NC(=O)[C@H](Cc1c[nH]c2ccccc12)NC(=O)[C@H](CCCCN)NC(C)=O)[C@@H](C)O)C(C)C)[C@@H](C)O)C(C)C)[C@@H](C)O)C(=O)N[C@@H](CO)C(=O)N[C@@H](CO)C(N)=O` [Peptide V681, reference compound], the “minimal hemolytic concentration (MHC)” value in series [1] came out at 15.6 µg/mL. In addition, the “MHC” value in series [1] came to 15.6 µg/mL. For the same compound, in series [2], the “MIC (μg/ml) Gram-negative” value is 8.8 µg/mL (≈ 2.97 µM). Besides, the entries for the “MIC (μg/ml) GM” value in series [2] (geometric mean of MIC values from all 6 Gram-negative strains of Table 11) and in series [4] were 5.0 µg/mL (≈ 1.69 µM) and 4.4 µg/mL (≈ 1.49 µM), respectively. In addition, the “[θ]222 Benign” value in series [3] (5° C., 100 mM KCl, 50 mM PO4 pH 7.4) is −13000 deg · cm^2 · dmol^−1; in series [3] (setting [6]), −12,900 deg · cm^2 · dmol^−1. Also, the “% helix 50% TFE” value is on record as 99% in series [3] (5° C., relative to D-V681 in 50% TFE) and 94% in series [3] (setting [5]). The “[θ]222 50% TFE” value in series [3] (5° C., benign buffer pH 7.4 containing 50% TFE) is −27950 deg · cm^2 · dmol^−1; in series [3] (setting [7]), −27,300 deg · cm^2 · dmol^−1. For the same compound, the “% helix Benign” value was determined as 46% in series [3] (5° C., pH 7.4 benign, relative to D-V681 in 50% TFE) and 45% in series [3] (setting [8]). Also, the “MIC (μg/ml) Gram-positive” value in series [4] was 6.3 µg/mL (≈ 2.13 µM). Also, the “geometric mean MIC against gram-positive bacteria” value in series [4] was 6.3 µg/mL.

Consider Ac-KWKSFLKTFKSAGKTVLHTALKAISS-NH2 [NG], for which, in series [1], the “minimal hemolytic concentration (MHC)” value worked out at 125 µg/mL and the “MHC” value amounted to 125.0 µg/mL. Also, the “MIC (μg/ml) Gram-negative” value in series [2] was 4.1 µg/mL. The “% helix 50% TFE” value in series [3] (setting [5]) is 84%. In series [3] (setting [7]), the “[θ]222 50% TFE” value is on record as −24,350 deg · cm^2 · dmol^−1. In series [3] (setting [8]), the “% helix Benign” value turned out to be 8%. The “MIC (μg/ml) Gram-positive” value in series [4] amounted to 7.4 µg/mL.

Regarding Ac-KWKSFLKTFKSASKTVLHTALKAISS-NH2 [NSL], in series [1], the “minimal hemolytic concentration (MHC)” value worked out at 125 µg/mL and the “MHC” value turned out to be 125.0 µg/mL. Besides, the “MIC (μg/ml) Gram-negative” value in series [2] was 4.2 µg/mL. In series [3] (setting [5]), the “% helix 50% TFE” value is listed as 95%. Besides, the “[θ]222 Benign” value in series [3] (setting [6]) is listed as −1,300 deg · cm^2 · dmol^−1. Also, in series [3] (setting [7]), the “[θ]222 50% TFE” value is given as −27,550 deg · cm^2 · dmol^−1. In addition, in series [3] (setting [8]), the “% helix Benign” value was determined as 4%. Further, the “MIC (μg/ml) Gram-positive” value in series [4] is 7.4 µg/mL.

Values taken from patent US8252737B2, “Antimicrobial peptides and methods of use” (priority 2004, dated 2012).
